Laboratory results as given in ChEMBL document CHEMBL1146512, “Ketene acetal and spiroacetal constituents of the marine fungus Aigialus parvus BCC 5311” (J Nat Prod, 2004).
The source made the active and inactive calls.

Experiments:
[1] = test system: Plasmodium falciparum; experiment: Antimalarial activity against Plasmodium falciparum K1; format: functional, organism-based
[2] = test system: KB; experiment: Cytotoxicity against human KB cells; format: functional, cell-based
[3] = test system: Mycobacterium tuberculosis; experiment: Antitubercular activity against Mycobacterium tuberculosis H37Ra; format: functional, organism-based
[4] = test system: Human alphaherpesvirus 1; experiment: Antiviral activity against HSV1; format: functional, organism-based
[5] = test system: Candida albicans; experiment: Antifungal activity against Candida albicans; format: functional, organism-based
[6] = test system: BC1; experiment: Cytotoxicity against human BC1 cells; format: functional, cell-based

Measured: Activity

CCCCCCC[C@@H]1OC2=C(C(=O)[C@H](C)O2)[C@H](O)[C@@]1(C)O
inactive: [1] | [2] | [3] | [4] | [5] | [6]

COc1cc(O)c2c(c1)[C@@H]([C@H]1C[C@H](O)[C@H](O)[C@@]3(C=CC[C@H](C)O3)O1)OC2=O
inactive: [1] | [2] | [3] | [4] | [5] | [6]
